In patent US20190119282A1, “IMIDAZOPYRIDAZINES USEFUL AS INHIBITORS OF THE PAR-2 SIGNALING PATHWAY” (Vertex Pharmaceuticals Incorporated, priority 2013, published 2019):
pIC50: −log10 of the molar value.

Key:
[1] = system: Thrombin-stimulated Ca2+ response in HT-29 cells; assay: Ca FLIPR TETRA assay, ANTAGONIST mode, stimulation with 1 U/mL Thrombin; type: cell-based, human; conditions: Homo sapiens; HT-29 cells, antagonist mode, stimulation with 1 U/mL Thrombin
Procedure, shortened: (§1)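 HT-29 cells grown overnight in 1% FBS McCoy's medium were loaded with calcium 5 dye (45 min 37 °C, 15 min r.t.). Compounds were added and Ca2+ read for direct activation, then after 30 min at r.t. cells were stimulated with 8 μM SLIGKV, 1 U/mL thrombin, 3.1 U/mL trypsin or 0.6 μM UTP (final).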

[2] = target: T1, PAR2 (HT-29 cells, SLIGKV activation) (Homo sapiens, UniProt P55085); assay: Ca FLIPR TETRA assay, ANTAGONIST mode, stimulation with 8 μM SLIGKV; type: cell-based; conditions: HT-29 cells, antagonist mode, stimulation with 8 μM SLIGKV
T1 construct: host or cells: HT-29 cells
T1 sequence (P55085 26-397): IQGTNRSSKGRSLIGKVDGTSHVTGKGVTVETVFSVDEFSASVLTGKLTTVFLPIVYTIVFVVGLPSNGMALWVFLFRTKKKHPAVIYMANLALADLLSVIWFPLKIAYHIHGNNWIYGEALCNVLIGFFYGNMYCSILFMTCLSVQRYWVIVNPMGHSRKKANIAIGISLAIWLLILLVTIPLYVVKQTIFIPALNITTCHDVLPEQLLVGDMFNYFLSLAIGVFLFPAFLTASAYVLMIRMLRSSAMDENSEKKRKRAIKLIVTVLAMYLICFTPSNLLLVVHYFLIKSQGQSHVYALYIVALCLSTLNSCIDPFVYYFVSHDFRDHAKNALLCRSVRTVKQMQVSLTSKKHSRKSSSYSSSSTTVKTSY
Procedure, shortened: as §1

[3] = system: UTP-stimulated Ca2+ response in HT-29 cells; assay: Ca FLIPR TETRA assay, ANTAGONIST mode, stimulation with 0.6 μM UTP; type: cell-based, human; conditions: Homo sapiens; HT-29 cells, antagonist mode, stimulation with 0.6 μM UTP
Procedure, shortened: as §1

[4] = target: T2, PAR2 (HT-29 cells, trypsin activation) (Homo sapiens, UniProt P55085); assay: Ca FLIPR TETRA assay, ANTAGONIST mode, stimulation with 3.1 U/mL trypsin; type: cell-based; conditions: HT-29 cells, antagonist mode, stimulation with 3.1 U/mL trypsin
T2 construct: host or cells: HT-29 cells
T2 sequence (P55085 26-397): T1 sequence (P55085 26-397)
Procedure, shortened: as §1

Structure (SMILES) | pIC50 [1] | pIC50 [2] | pIC50 [3] | pIC50 [4]
Cc1ccc(-c2cc(C(C)(C)C)c3nc(C(=O)N4CCN(C(=O)c5ccccn5)CC4(C)C)cn3n2)cc1 [Compound I-391] | < 6.00 | 8.74 | < 6.00 | 8.66
Cc1ccc(-c2cc(C(C)(C)C)c3nc(C(=O)N4CCN(C(=O)c5ncccn5)CC4(C)C)cn3n2)cc1 [Compound I-392] | < 6.00 | 8.85 | < 6.00 | 8.60
Cc1ccc(-c2cc(C(C)(C)C)c3nc(C(=O)N4CCN(C(=O)c5nnc(C)o5)CC4(C)C)cn3n2)cc1 [Compound I-393] | < 6.00 | 8.80 | < 6.00 | 8.82
Cc1ccc(-c2cc(C(C)(C)C)c3nc(C(=O)N4CCN(C(=O)c5ccn[nH]5)CC4(C)C)cn3n2)cc1 [Compound I-394] | < 6.00 | 9.05 | < 6.00 | 8.96
Cc1ccc(-c2cc(C(C)(C)C)c3nc(C(=O)N4CCN(C(=O)c5cc(C)n[nH]5)CC4(C)C)cn3n2)cc1 [Compound I-395] | < 6.00 | 9.22 | < 6.00 | 9.30
Cc1ccc(-c2cc(C(C)(C)C)c3nc(C(=O)N4CCN(C(=O)[C@H]5C[C@@](C)(O)C5)CC4(C)C)cn3n2)cc1 [Compound I-396] | < 6.00 | 9.40 | < 6.00 | 9.15
Cc1ccc(-c2cc(C(C)(C)C)c3nc(C(=O)N4CCN(C(=O)c5nc(C)n[nH]5)CC4(C)C)cn3n2)cc1 [Compound I-397] | < 6.00 | 9.22 | < 6.00 | 9.22
CC(C)(C)c1cc(-c2ccc(C(F)(F)F)cc2)nn2cc(C(=O)N3CCN(C(=O)c4ccccn4)CC3(C)C)nc12 [Compound I-398] | < 6.00 | 8.51 | < 6.00 | 8.59
CC(C)(C)c1cc(-c2ccc(C(F)(F)F)cc2)nn2cc(C(=O)N3CCN(C(=O)c4ncccn4)CC3(C)C)nc12 [Compound I-399] | < 6.00 | 8.74 | < 6.00 | 8.82
Cc1nnc(C(=O)N2CCN(C(=O)c3cn4nc(-c5ccc(C(F)(F)F)cc5)cc(C(C)(C)C)c4n3)C(C)(C)C2)o1 [Compound I-400] | < 6.00 | 8.44 | < 6.00 | 8.55
CC(C)(C)c1cc(-c2ccc(C(F)(F)F)cc2)nn2cc(C(=O)N3CCN(C(=O)c4ccn[nH]4)CC3(C)C)nc12 [Compound I-401] | < 6.00 | 8.68 | < 6.00 | 8.82
Cc1cc(C(=O)N2CCN(C(=O)c3cn4nc(-c5ccc(C(F)(F)F)cc5)cc(C(C)(C)C)c4n3)C(C)(C)C2)[nH]n1 [Compound I-402] | < 6.00 | 9.10 | < 6.00 | 9.00
Cc1n[nH]c(C(=O)N2CCN(C(=O)c3cn4nc(-c5ccc(C(F)(F)F)cc5)cc(C(C)(C)C)c4n3)C(C)(C)C2)n1 [Compound I-403] | < 6.00 | 9.00 | < 6.00 | 8.82
Cc1cccc(-c2cc(C(C)(C)C)c3nc(C(=O)N4CCN(C(=O)c5ccn[nH]5)CC4(C)C)cn3n2)c1 [Compound I-404] | 6.16 | 9.05 | < 6.00 | 8.37
Cc1cc(-c2cc(C(C)C)c3nc(C(=O)N4CCN(c5cn[nH]c5)C(=O)C4(C)C)cn3n2)ccc1F [Compound I-405] | < 6.00 | 8.80 | < 6.00 | 8.74
Cc1cccc(-c2cc(C(C)(C)C)c3nc(C(=O)N4CCN(C(=O)c5cc(C)n[nH]5)CC4(C)C)cn3n2)c1 [Compound I-406] | 6.43 | 8.66 | < 6.00 | 8.55
Cc1cccc(-c2cc(C(C)(C)C)c3nc(C(=O)N4CCN(C(=O)c5c[nH]c(C)n5)CC4(C)C)cn3n2)c1 [Compound I-407] | < 6.00 | 8.25 | < 6.00 | 8.29
Cc1cccc(-c2cc(C(C)(C)C)c3nc(C(=O)N4CCN(C(=O)c5nc(C)n[nH]5)CC4(C)C)cn3n2)c1 [Compound I-408] | 6.27 | 8.55 | < 6.00 | 8.37
Cc1cccc(-c2cc(C(C)(C)C)c3nc(C(=O)N4CCN(C(=O)C5CC(C)(O)C5)CC4(C)C)cn3n2)c1 (centres unmarked) [Compound I-409] | 6.08 | 8.77 | < 6.00 | 8.77

Structure (SMILES) | pIC50 [1] | pIC50 [2] | pIC50 [3] | pIC50 [4]
Cc1cccc(-c2cc(C(C)(C)C)c3nc(C(=O)N4CCN(C(=O)c5nnc(C)o5)CC4(C)C)cn3n2)c1 [Compound I-410] | 6.02 | 8.20 | < 6.00 | 8.09
Cc1cccc(-c2cc(C(C)(C)C)c3nc(C(=O)N4CCN(C(=O)c5ccccn5)CC4(C)C)cn3n2)c1 [Compound I-411] | 6.06 | 8.32 | < 6.00 | 8.19
Cc1cccc(-c2cc(C(C)(C)C)c3nc(C(=O)N4CCN(C(=O)c5ncccn5)CC4(C)C)cn3n2)c1 [Compound I-412] | 6.15 | 8.19 | < 6.00 | 8.00
Cc1nc(C(=O)N2CCN(C(=O)c3cn4nc(-c5ccc(C(F)(F)F)cc5)cc(C(C)C)c4n3)C(C)(C)C2)n[nH]1 [Compound I-413] | < 6.00 | 8.47 | < 6.00 | 8.37
Cc1n[nH]c(C(=O)N2CCN(C(=O)c3cn4nc(-c5ccc(F)c(C)c5)cc(C(C)(C)C)c4n3)C(C)(C)C2)n1 [Compound I-414] | < 6.00 | 9.00 | < 6.00 | 8.89
Cc1ccc(-c2cc(C(C)(C)C)c3nc(C(=O)N4CCN(C(=O)[C@H]5C[C@@](C)(O)C5)CC4(C)C)cn3n2)cc1F [Compound I-415] | < 6.00 | 9.52 | < 6.00 | 9.30
Cc1nc(C(=O)N2CCN(C(=O)c3cn4nc(-c5ccc(C)c(F)c5)cc(C(C)(C)C)c4n3)C(C)(C)C2)n[nH]1 [Compound I-416] | < 6.00 | 9.22 | < 6.00 | 9.22
Cc1cc(-c2cc(C(C)(C)C)c3nc(C(=O)N4CCN(c5c[nH]cn5)C(=O)C4(C)C)cn3n2)ccc1F [Compound I-418] | < 6.00 | 8.12 | < 6.00 | 8.15
CC(C)(C)c1cc(-c2ccc(Cl)c(F)c2)nn2cc(C(=O)N3CCNC(=O)C3(C)C)nc12 [Compound I-419] | < 6.00 | 8.96 | < 6.00 | 9.05
Cc1cc(C(=O)N2CCN(C(=O)c3cn4nc(-c5ccc(F)cc5)cc(C(C)(C)F)c4n3)C(C)(C)C2)[nH]n1 [Compound I-420] | < 6.00 | 8.77 | < 6.00 | 8.62
Cc1ccc(-c2cc(C(C)(C)C)c3nc(C(=O)N4CCN(C(=O)c5cnc(C)[nH]5)CC4(C)C)cn3n2)cc1 [Compound I-422] | < 6.00 | 8.72 | < 6.00 | 8.70
Cc1ncc(C(=O)N2CCN(C(=O)c3cn4nc(-c5ccc(C(F)(F)F)cc5)cc(C(C)(C)C)c4n3)C(C)(C)C2)[nH]1 [Compound I-423] | < 6.00 | 8.77 | < 6.00 | 8.66
Cc1ccc(-c2cc(C(C)(C)C)c3nc(C(=O)N4CCN(C(=O)c5ccn[nH]5)CC4(C)C)cn3n2)cc1F [Compound I-424] | < 6.00 | 9.05 | < 6.00 | 8.92
Cc1ccc(-c2cc(C(C)(C)C)c3nc(C(=O)N4CCN(C(=O)c5ccccn5)CC4(C)C)cn3n2)cc1F [Compound I-425] | < 6.00 | 8.82 | < 6.00 | 8.92
Cc1ccc(-c2cc(C(C)(C)C)c3nc(C(=O)N4CCN(C(=O)c5ncccn5)CC4(C)C)cn3n2)cc1F [Compound I-426] | < 6.00 | 8.77 | < 6.00 | 8.74
Cc1cc(C(=O)N2CCN(C(=O)c3cn4nc(-c5ccc(C)c(F)c5)cc(C(C)(C)C)c4n3)C(C)(C)C2)[nH]n1 [Compound I-427] | < 6.00 | 9.30 | < 6.00 | 9.15
CC(C)(C)c1cc(C2CCC(F)(F)CC2)nn2cc(C(=O)N3CCNC(=O)C3(C)C)nc12 [Compound I-428] | < 6.00 | 7.51 | < 6.00 | 7.22
CC(C)(C)c1cc(C2CCC(F)(F)CC2)nn2cc(C(=O)N3CCN(c4c[nH]cn4)C(=O)C3(C)C)nc12 [Compound I-430] | < 6.00 | 7.79 | < 6.00 | 7.62
Cc1ncc(C(=O)N2CCN(C(=O)c3cn4nc(-c5ccc(C)c(F)c5)cc(C(C)(C)C)c4n3)C(C)(C)C2)[nH]1 [Compound I-431] | < 6.00 | 8.85 | < 6.00 | 8.80
